Here are results for three molecules from publication PMC6534253, “Stereoselective pharmacokinetic and pharmacodynamic analysis of a CNS-active sulphamoylphenyl carbamate derivative” (Journal of Enzyme Inhibition and Medicinal Chemistry, 2019).

Data set [1] is described as follows: Pharmacokinetics from plasma levels after i.p. administration to rats. Type of data set: in vivo, rat. Particulars: for Vd/F: read-out: Vss/F. The procedure:
(§1) The pharmacokinetics (PK) of racemic-MSPC and its two individual enantiomers were studied following i.p. (80 mg/kg) to rats and their major PK parameters were estimated.
(§2) The study details were as described previously[8] and plasma and brain levels of racemic-MSPC and it individual enantiomers were monitored at: 20, 40, 60, 90, 120, 160, 180, 200, 220, 260, 320, and 360 min after dosing.
(§3) Plasma and brain concentrations of each compound were quantified by an HPLC assay. The HPLC analysis was performed on a system (2695 Separation Module; Waters, Milford, MA) with a photodiode array UV detector (2996 PDA Detector; Waters, Milford, MA). Conditioned as follows: Kinetex, 5 u EVO C18 100 A, 150*4.6 mm column (Phenomenex®, Torrance, CA). Linear gradients (5–95% acetonitrile content) with H2O (0.1% formic acid) and acetonitrile were used as the eluents with flow rate of 1 ml/min at 20 °C. The compounds and the internal standard were detected at 250 nm. Plasma and brain concentrations of MSPC and its two individual enantiomers were quantified by assay that its extraction method was previously described.
(§4) The PK parameters of each compound were calculated by non-compartmental analysis based on statistical moment theory using the PK software Phoenix Winnonlin Tripos L.P. (Pharsight Co., Mountain View, CA) as previously described. MSPC amount excreted unchanged in the urine was calculated by multiplying its urine concertino by the excreted urine volume for up to 6 h after dosing.

Data set [2] deals with maximal electroshock seizure (MES). On the set-up: method as in PMID 28275953. The note with it: cited from earlier work.
The nature of data set [3]: Pharmacokinetics from brain levels after i.p. administration to rats. Particulars: for AUCbrain: as used in the BPR calculation; for Vd/F: read-out: Vss/F. Type of data set: in vivo, rat. The protocol: as §1, §2, §3, §4
The next data set addresses hCA I (Homo sapiens, UniProt P00915). In words: Stopped flow CO2 hydrase assay, hCA I. The class given is biochemical. The note with it: for Ki: mean from three assays, stopped flow technique. The protocol: (§5) The CA inhibition of MSPC and its individual enantiomers were assessed by a stopped flow CO2 hydrase assay as previously described.
The next data set has as its target hCA IV (Homo sapiens, UniProt P22748). In words: Stopped flow CO2 hydrase assay, hCA IV. The class given is biochemical. The note with it: mean from three assays, stopped flow technique. The procedure:
as §5

A short description of data set [4]: Amount excreted unchanged in urine. The class given is in vivo, rat. The note with it: urine up to 6 h after dosing. The procedure: MSPC urine concentrations were quantified by the same HPLC assay as its plasma assay.
as §4

In a further data set the target is hCA VII (Homo sapiens, UniProt P43166). The data set can be described thus: Stopped flow CO2 hydrase assay, hCA VII. Type of data set: biochemical. Particulars: mean from three assays, stopped flow technique. The protocol:
as §5

A further data set has as its target hCA II (Homo sapiens, UniProt P00918). The data set can be described thus: Stopped flow CO2 hydrase assay, hCA II. The class given is biochemical. Particulars: for Ki: mean from three assays, stopped flow technique. The protocol: as §5
The next data set in a line: Water solubility. The class given is physicochemical.
Data set [5] relates to maximal electroshock seizure (MES). The data set can be described thus: Rat maximal electroshock (MES) anticonvulsant test. The class given is in vivo. An excerpt: The experiments at the MES model were done in male Sprague-Dawley rats (8 rats per dose) weighing 100−120 g (Charles River Laboratories, Wilmington, MA) as previously described.
A general note: The maximal electroshock test induces tonic seizures with an electrical stimulus.

Where [6] appears, read: rat, ip, plasma, i.p. 80 mg/kg, mean.
The mark [7] stands for this setting: rat, plasma, ip, 80 mg/kg, as used in the BPR calculation, i.p. 80 mg/kg, read-out: AUCplasma.
Setting [8] is: rat, plasma, ip, 80 mg/kg, plasma, i.p. 80 mg/kg, mean, read-out: AUC.
Setting [9] is: rat, ip, brain, rats, i.p. 80 mg/kg, mean.
Where [10] appears, read: plasma, i.p. 80 mg/kg, mean, listed as (R)-enantiomer, 80 mg/kg.
Setting [11] is: brain, rats, i.p. 80 mg/kg, mean, listed as (R)-enantiomer, 80 mg/kg.
[12] abbreviates: brain, rats, i.p. 80 mg/kg, mean, listed as (S)-enantiomer, 80 mg/kg.

Usually half-life stands for the time needed for the level to fall by half in the phase considered. Higher therefore signals slow decline. In general, Cmax refers to the maximum level reached in the sampled fluid or tissue. In general, Tmax refers to the time from dosing to the highest level. What is called Ki is the dissociation constant of the complex between target and ligand, obtained from inhibition or displacement. A high value points to lower affinity. By ED50 is commonly meant the dose at which the effect has come halfway, by size or by number of responders. Read a high ED50 as weaker potency.

Chain of hCA VII (P43166 whole entry): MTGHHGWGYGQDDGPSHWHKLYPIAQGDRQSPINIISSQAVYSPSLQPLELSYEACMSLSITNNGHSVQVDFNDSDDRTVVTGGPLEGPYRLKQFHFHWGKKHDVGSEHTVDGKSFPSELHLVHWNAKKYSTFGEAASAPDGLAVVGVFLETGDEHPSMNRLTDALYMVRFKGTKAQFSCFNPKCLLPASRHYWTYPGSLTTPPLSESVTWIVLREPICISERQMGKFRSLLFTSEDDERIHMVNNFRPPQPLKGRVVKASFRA
Chain of hCA IV (P22748 19-312): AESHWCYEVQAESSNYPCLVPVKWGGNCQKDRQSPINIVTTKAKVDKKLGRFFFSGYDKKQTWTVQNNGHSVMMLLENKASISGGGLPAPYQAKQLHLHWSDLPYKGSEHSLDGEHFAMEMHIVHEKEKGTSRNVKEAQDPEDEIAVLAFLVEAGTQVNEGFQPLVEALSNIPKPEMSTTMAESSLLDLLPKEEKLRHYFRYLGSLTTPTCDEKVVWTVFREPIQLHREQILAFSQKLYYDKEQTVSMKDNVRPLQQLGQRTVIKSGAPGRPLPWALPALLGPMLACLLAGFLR
Chain of hCA I (P00915 whole entry): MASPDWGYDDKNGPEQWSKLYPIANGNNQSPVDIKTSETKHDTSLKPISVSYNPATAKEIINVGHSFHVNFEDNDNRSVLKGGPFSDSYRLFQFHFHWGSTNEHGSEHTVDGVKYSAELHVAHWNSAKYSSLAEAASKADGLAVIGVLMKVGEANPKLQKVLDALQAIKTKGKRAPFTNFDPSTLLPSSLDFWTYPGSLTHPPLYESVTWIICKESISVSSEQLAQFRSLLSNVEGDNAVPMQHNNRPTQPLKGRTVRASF

Take `CCC(C)CCOC(=O)Nc1ccc(S(N)(=O)=O)cc1` (racemic) [MSPC (racemate), 3-Methylpentyl(4-sulphamoylphenyl)carbamate]: the half-life in data set [1] (setting [6]) was 2.1 h; in data set [3] (setting [9]) it was 1.9 h. For the same molecule, the CL/F in data set [1] (rat, ip, plasma, i.p. 80 mg/kg, mean, read-out: CL/F (converted)) was 11.7 mL/min/kg; in data set [3] (rat, ip, brain, rats, i.p. 80 mg/kg, mean, read-out: CL/F (converted)), 6.67 mL/min/kg. In addition, the Cmax in [1] (rat, ip, plasma, i.p. 80 mg/kg, mean, read-out: Cmax) turned out to be 10000 ng/mL; in [3] (rat, ip, brain, rats, i.p. 80 mg/kg, mean, read-out: Cmax), 18000 ng/mL. Also, the Vd/F is 2.2 L/kg in data set [1] (setting [6]) and 1 L/kg in [3] (setting [9]). For the same molecule, the time of peak concentration (Tmax) is 1.3 h in [1] (rat, ip, plasma, i.p. 80 mg/kg, mean, read-out: tmax) and 1.6 h in data set [3] (rat, ip, brain, rats, i.p. 80 mg/kg, mean, read-out: tmax). The AUC in [1] (setting [7]) was 28500 ng·h/mL; in [1] (setting [8]), 29000 ng·h/mL; in data set [3] (rat, ip, brain, rats, i.p. 80 mg/kg, mean, read-out: AUC), 53000 ng·h/mL. Also, the “rat-MES-ED50 (i.p.)” value in [2] (i.p.) is 13 mg/kg. Moreover, the “rat-MES-ED50 (po)” value in data set [2] (po) is listed as 28 mg/kg. Also, the AUCbrain in [3] (rats, i.p. 80 mg/kg) was 52.8. Besides, the Kp in data set [3] (rat, brain, ip, AUCbrain/AUCplasma, rats, i.p. 80 mg/kg, read-out: brain-to-plasma-(AUC)-ratio (BPR)) was 1.85. The Ki came to 0.077 µM on hCA I, 0.75 µM at hCA IV, 0.351 µM on hCA VII and 0.0076 µM on hCA II. Besides, the “dose excreted unchanged in urine” value in [4] is on record as “Less than 0.1%”. Also, the water solubility entry in the data set “Water solubility” was “low water solubility”.
Regarding `CC[C@@H](C)CCOC(=O)Nc1ccc(S(N)(=O)=O)cc1` [(R)-MSPC, 3-methylpentyl(4-sulphamoylphenyl)carbamate], the “rat-MES (po)-ED50” value in data set [5] came to 30 mg/kg. Also, the higher clearance in data set [1] (compared to (S)-MSPC and racemic-MSPC) is recorded as 29%. The “plasma exposure compared to (S)-MSPC” value in data set [1] (i.p. 80 mg/kg) was determined as 78%. Moreover, in data set [1] (setting [10]), the AUC came out at 23 mg/L/h, the CL/F worked out at 15 mL/min/kg, the Cmax was determined as 10000 ng/mL and the Tmax is 1.0 h. Also, in data set [1] (setting [10]), the Vss/F is 3.2 l/kg^−1 and the t1/2 turned out to be 2.5 h. Further, the “brain-to-plasma-(AUC)-ratio (BPR)” value in data set [3] (AUCbrain/AUCplasma, rats, i.p. 80 mg/kg, listed as (R)-enantiomer, 80 mg/kg) is 2.07. Further, in data set [3] (setting [11]), the AUC stood at 47 mg/L/h, the CL/F stood at 6.7 mL/min/kg, the Cmax was determined as 16000 ng/mL and the Tmax came out at 1.0 h. In data set [3] (setting [11]), this molecule gave a Vss/F of 1.4 l/kg^−1 and a t1/2 of 2.3 h. For the same molecule, in [3] (versus (S)-MSPC), the “times higher BPR than its enantiomer” value is recorded as 2.6. For the same molecule, on hCA I, the inhibition constant (Ki) was 0.0341 µM. In addition, on hCA I (ratio of Ki versus (S)-MSPC), the “times more effective inhibitor than (S)-MSPC against hCA I” value worked out at 3.8. Moreover, the Ki on hCA IV amounted to 0.81 µM. The molecule also yielded a Ki at hCA VII of 0.17 µM. Besides, the affinity at hCA II corresponds to a Ki of 0.0033 µM. Moreover, the “times more effective inhibitor than (S)-MSPC against hCA II” value at hCA II (ratio of Ki versus (S)-MSPC) came to 6.1.
Molecule `CC[C@H](C)CCOC(=O)Nc1ccc(S(N)(=O)=O)cc1` [(S)-MSPC, 3-methylpentyl(4-sulphamoylphenyl)carbamate] displayed a 50% effective dose (ED50) in [5] (Rattus norvegicus, po) of 24 mg/kg. In addition, the results for the AUC in data set [1] (setting [7]), in data set [1] (setting [8]) and in [3] (setting [12]) were 29000 ng·h/mL, 29000 ng·h/mL and 23 mg/L/h, respectively. Moreover, the half-life in data set [1] (rat, plasma, ip, 80 mg/kg, i.p. 80 mg/kg, mean) is 2.3 h; in data set [3] (rat, brain, ip, 80 mg/kg, rats, i.p. 80 mg/kg, mean), 1.7 h. Moreover, the CL/F in [1] (rat, plasma, ip, 80 mg/kg, plasma, i.p. 80 mg/kg, mean, read-out: CL/F (converted)) was 11.7 mL/min/kg; in [3] (setting [12]) it was 15 mL/min/kg. The Cmax turned out to be 7600 ng/mL in data set [1] (rat, plasma, ip, 80 mg/kg, plasma, i.p. 80 mg/kg, mean, read-out: Cmax) and 7000 ng/mL in data set [3] (setting [12]). In addition, the Vd/F in data set [1] (rat, plasma, ip, 80 mg/kg, plasma, i.p. 80 mg/kg, mean) turned out to be 2.3 L/kg; in data set [3] (rat, brain, ip, 80 mg/kg, brain, rats, i.p. 80 mg/kg, mean), 2.2 L/kg. Besides, the time of peak concentration (Tmax) in [1] (rat, plasma, ip, 80 mg/kg, plasma, i.p. 80 mg/kg, mean, read-out: tmax) is 1.3 h; in data set [3] (rat, brain, ip, 80 mg/kg, brain, rats, i.p. 80 mg/kg, mean, read-out: tmax), 0.6 h. For the same molecule, the “brain-to-plasma-(AUC)-ratio (BPR)” value in [3] (AUCbrain/AUCplasma, rats, i.p. 80 mg/kg, listed as (S)-enantiomer, 80 mg/kg) came out at 0.79. Besides, the AUCbrain in data set [3] (rats, i.p. 80 mg/kg, listed as (S)−enantiomer, 80 mg/kg) is 22.8. Also, the Ki on hCA I is 0.13 µM; at hCA IV it was 0.593 µM; on hCA VII it was 0.744 µM; on hCA II it was 0.0203 µM.
